From ChEMBL document CHEMBL1138371, “Discovery of low nanomolar non-hydroxamate inhibitors of tumor necrosis factor-alpha converting enzyme (TACE)” (Bioorg Med Chem Lett, 2007)

Experiments:
[1] = molecular target: Macrophage metalloelastase (Homo sapiens, UniProt P39900); assay: Inhibition of MMP12
Collagenase 3 = Collagenase 3 (Homo sapiens, UniProt P45452); assay: Inhibition of MMP13
Matrilysin = molecular target: T1, Matrilysin (Homo sapiens, UniProt P09237); assay: Inhibition of MMP7
T1 sequence (P09237 whole entry): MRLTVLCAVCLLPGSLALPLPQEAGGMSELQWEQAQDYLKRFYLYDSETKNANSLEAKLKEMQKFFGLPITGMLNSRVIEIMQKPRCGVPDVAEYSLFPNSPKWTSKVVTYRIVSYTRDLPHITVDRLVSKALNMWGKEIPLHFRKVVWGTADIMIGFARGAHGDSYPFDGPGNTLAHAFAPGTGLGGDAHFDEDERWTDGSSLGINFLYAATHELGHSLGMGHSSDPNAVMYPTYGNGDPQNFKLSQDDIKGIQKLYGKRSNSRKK

Stromelysin-1 = Stromelysin-1 (Homo sapiens, UniProt P08254); assay: Inhibition of MMP3
[2] = molecular target: Disintegrin and metalloproteinase domain-containing protein 17 (Sus scrofa, UniProt O77636); assay: Inhibition of porcine TACE
Homo sapiens = species: Homo sapiens; assay: Inhibition of aggrecanase at 1 uM
Interstitial collagenase = molecular target: T2, Interstitial collagenase (Homo sapiens, UniProt P03956); assay: Inhibition of MMP1
T2 sequence (P03956 whole entry): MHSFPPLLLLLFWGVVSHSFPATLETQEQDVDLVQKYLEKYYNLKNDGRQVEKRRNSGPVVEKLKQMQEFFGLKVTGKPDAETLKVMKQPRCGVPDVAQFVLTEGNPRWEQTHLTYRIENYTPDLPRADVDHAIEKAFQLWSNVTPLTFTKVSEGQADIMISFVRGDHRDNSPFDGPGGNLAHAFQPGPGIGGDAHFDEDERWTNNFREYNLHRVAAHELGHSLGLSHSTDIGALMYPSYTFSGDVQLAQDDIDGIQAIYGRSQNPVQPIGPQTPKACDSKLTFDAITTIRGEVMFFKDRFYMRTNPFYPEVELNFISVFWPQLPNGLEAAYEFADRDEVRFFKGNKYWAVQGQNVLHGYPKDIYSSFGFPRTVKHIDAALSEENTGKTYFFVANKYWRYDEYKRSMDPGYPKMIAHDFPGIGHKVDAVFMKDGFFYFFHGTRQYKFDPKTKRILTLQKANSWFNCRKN

[3] = molecular target: Matrix metalloproteinase-9 (Homo sapiens, UniProt P14780); assay: Inhibition of MMP9
[4] = molecular target: 72 kDa type IV collagenase (Homo sapiens, UniProt P08253); assay: Inhibition of MMP2
72 kDa type IV collagenase, sequence (P08253 whole entry): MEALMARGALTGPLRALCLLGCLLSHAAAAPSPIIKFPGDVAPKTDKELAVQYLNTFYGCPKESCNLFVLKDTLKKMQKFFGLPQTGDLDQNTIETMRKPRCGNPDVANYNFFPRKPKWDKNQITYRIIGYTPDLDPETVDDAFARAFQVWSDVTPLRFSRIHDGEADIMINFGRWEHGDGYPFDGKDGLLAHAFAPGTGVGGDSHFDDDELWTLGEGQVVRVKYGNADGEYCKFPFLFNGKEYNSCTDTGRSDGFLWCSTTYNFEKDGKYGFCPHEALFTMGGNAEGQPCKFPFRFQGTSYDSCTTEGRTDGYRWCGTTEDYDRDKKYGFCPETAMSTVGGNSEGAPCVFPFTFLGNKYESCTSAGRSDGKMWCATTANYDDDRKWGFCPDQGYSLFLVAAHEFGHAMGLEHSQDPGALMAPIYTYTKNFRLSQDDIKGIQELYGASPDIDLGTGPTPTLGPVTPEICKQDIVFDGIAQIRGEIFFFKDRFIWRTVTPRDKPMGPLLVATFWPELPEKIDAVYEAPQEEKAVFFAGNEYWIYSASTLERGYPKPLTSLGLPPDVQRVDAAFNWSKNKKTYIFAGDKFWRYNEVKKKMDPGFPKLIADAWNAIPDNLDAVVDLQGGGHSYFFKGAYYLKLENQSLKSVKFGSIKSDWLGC

Macrophage metalloelastase, sequence (P39900 whole entry): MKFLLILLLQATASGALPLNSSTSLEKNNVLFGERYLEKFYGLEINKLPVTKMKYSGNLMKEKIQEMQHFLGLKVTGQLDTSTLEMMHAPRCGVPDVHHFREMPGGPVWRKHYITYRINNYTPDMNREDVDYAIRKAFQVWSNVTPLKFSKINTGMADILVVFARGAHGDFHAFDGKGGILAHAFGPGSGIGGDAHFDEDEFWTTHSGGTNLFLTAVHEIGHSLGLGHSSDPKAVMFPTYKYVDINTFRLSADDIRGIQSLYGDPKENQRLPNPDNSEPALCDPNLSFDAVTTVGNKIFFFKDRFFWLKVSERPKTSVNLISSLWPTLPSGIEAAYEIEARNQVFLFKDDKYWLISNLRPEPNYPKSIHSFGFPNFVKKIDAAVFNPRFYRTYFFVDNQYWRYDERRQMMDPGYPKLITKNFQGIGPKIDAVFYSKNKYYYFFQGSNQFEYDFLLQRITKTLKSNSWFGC
Disintegrin and metalloproteinase domain-containing protein 17, sequence (O77636 whole entry, the tested form may be a part): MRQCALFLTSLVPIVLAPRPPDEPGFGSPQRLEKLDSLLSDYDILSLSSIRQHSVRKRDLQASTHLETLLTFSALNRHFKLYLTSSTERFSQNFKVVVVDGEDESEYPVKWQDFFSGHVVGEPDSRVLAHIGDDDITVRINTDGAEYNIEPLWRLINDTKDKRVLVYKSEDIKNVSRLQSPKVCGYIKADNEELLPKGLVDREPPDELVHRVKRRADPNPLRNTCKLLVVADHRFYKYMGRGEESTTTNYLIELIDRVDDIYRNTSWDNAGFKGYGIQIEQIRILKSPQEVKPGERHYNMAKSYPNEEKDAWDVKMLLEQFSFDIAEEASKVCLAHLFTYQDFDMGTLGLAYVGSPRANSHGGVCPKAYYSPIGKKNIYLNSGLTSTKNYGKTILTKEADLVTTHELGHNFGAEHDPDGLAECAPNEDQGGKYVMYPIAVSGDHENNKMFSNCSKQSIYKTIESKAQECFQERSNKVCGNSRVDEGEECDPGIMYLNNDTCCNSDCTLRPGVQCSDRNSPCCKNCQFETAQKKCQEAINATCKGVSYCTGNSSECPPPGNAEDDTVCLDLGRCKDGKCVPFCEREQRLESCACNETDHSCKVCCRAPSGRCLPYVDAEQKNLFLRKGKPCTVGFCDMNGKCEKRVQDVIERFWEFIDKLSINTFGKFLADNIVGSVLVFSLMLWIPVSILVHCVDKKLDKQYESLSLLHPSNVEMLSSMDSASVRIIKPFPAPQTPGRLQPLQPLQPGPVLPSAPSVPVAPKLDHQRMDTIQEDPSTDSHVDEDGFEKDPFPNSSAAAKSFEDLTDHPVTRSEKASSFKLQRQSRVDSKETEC
Stromelysin-1, sequence (P08254 whole entry, the tested form may be a part): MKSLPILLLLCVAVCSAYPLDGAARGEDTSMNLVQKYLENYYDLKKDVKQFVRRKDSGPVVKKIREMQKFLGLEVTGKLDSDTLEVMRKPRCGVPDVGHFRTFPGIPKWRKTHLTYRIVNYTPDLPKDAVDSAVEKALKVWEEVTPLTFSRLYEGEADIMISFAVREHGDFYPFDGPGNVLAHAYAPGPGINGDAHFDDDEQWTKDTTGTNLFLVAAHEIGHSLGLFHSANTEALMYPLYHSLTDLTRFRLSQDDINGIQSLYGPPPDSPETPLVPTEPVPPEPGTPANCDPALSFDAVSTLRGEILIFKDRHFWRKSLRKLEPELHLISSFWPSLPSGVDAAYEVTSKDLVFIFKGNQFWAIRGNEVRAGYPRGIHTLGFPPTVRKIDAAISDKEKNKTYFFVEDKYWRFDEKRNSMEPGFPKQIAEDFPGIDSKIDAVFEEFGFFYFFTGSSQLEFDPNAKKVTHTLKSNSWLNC
Matrix metalloproteinase-9, sequence (P14780 whole entry): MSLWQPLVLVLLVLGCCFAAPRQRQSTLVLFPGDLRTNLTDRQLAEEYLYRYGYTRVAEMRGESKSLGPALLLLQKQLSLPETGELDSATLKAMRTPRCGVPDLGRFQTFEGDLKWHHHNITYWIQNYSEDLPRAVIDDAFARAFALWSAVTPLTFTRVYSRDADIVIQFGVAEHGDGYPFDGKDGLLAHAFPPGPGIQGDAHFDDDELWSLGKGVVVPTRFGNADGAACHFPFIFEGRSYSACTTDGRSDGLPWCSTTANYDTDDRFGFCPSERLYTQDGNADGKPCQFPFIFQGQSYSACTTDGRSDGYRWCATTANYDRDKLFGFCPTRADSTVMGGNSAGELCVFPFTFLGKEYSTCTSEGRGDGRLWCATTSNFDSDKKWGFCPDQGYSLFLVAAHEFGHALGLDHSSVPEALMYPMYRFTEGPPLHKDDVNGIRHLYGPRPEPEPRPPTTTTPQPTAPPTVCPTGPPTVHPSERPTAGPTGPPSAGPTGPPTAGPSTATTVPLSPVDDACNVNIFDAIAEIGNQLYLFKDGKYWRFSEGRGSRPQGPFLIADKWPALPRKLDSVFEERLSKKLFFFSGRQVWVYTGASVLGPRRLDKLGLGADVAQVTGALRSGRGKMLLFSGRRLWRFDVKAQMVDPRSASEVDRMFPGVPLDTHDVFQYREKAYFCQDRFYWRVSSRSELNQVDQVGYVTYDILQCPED

With `Cc1cc(COc2ccc(C(=O)NCC3(C)C(=O)NC(=O)NC3=O)cc2)c2ccccc2n1` the Ki [1] was > 6.02 µM, the Ki (Collagenase 3) was > 5.02 µM and the Ki (Matrilysin) was > 6.37 µM. The Ki (Stromelysin-1) was > 4.5 µM, the IC50 [2] was 0.026 µM and the inhibition (Homo sapiens) was 0%. For the same compound, the Ki (Interstitial collagenase) was > 4.95 µM, the Ki [3] was > 2.13 µM and the Ki [4] was > 3.33 µM.
